The text below walks through data of patent US5834431A, “Des-Arg^9 -BK antagonists” (Cortech, Inc., priority 1995, dated 1998).

One series has as its target T1, B1 receptor (Homo sapiens, UniProt P46663).
T1 construct: Human lung fibroblasts IMR-90 cells were obtained from ATCC and propagated in DMEM media; host or cells: IMR-90 human lung fibroblasts, treated with interleukin 1b three hours before harvest; membranes
T1 sequence (P46663 1-353): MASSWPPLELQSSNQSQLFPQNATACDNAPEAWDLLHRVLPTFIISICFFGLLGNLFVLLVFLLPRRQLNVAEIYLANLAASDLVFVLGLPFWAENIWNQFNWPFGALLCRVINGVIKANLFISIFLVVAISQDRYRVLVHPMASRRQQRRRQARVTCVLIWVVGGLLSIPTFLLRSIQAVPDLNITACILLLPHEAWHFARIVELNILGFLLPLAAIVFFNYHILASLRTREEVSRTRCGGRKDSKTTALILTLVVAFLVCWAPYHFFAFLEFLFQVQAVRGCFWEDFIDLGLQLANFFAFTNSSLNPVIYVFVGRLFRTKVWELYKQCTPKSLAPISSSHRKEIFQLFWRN
Description: Human B1 binding, IL-1b-treated IMR-90 membranes, 3H-des-Arg9-Kallidin. Conditions: 0.5 nM 3H-des-Arg9-Kallidin, pIC50 = -log of molar IC50. On the procedure:
(§1) Human lung fibroblasts IMR-90 cells were obtained from ATCC and propagated in DMEM media in […] roller bottles until confluent. Three hours prior to harvesting, the cells were treated with Interleukin lb (200 pg/ml). Human BK2 clones were propagated in F12 media until confluent. Preparation of membranes for binding assays was carried out by scraping cells from roller bottles in ice cold PBS and centrifuging at 1000 ×g, at 4° C. for 15 minutes. The supernatant was discarded and pellet resuspended in Buffer A consisting of 25 mM TES(pH 6.8) with 2 uM 1,10-Phenanthroline, and centrifuged at 27,000 ×g for 15 min. this was then repeated. The final pellet was resuspended in Buffer B (Buffer A with 2 uM Captopril, 140 ug/Ml Bacitracin, 0.1%BSA), and stored in 1 ml aliquots, frozen at -20° C. until needed.
(§2) Binding assays were performed by incubating human clone membranes with 0.3 nM ^3 H-Bradykinin or IMR-90 membranes with 0.5 nM ^3 H-des-Arg^9 -Kallidin in the presence of the peptides in assay buffer (Buffer B with 1 mM Dithiotreitol), at room temperature, for 45 minutes. All test compound dilutions were in triplicate. Assays were harvested by quick filtration in a Tomtec Harvester 96, with ice cold wash buffer consisting of 10 mM Tris/HCl, pH 7.5, 100 mM NaCl, 0.02%BSA, onto Wallec printed glassfiber Filtermat "B", which had been pre-soaked with 0.1% PEI and previously air-dried.

Series [1] has as its target T2, B2 receptor (Homo sapiens, UniProt P30411).
T2 construct: expressed in transfected cells
T2 sequence (P30411 1-391): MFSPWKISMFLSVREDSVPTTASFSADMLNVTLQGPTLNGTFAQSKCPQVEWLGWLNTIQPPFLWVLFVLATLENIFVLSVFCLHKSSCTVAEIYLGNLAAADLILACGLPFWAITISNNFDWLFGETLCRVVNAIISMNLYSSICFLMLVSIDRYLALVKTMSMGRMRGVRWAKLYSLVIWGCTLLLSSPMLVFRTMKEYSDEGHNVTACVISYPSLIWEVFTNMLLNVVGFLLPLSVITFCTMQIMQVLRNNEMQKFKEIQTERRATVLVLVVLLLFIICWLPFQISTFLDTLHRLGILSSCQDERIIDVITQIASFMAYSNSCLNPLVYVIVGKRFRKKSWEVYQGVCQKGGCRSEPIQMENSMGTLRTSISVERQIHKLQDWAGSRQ
The series is described as follows: Human B2 binding, human BK2 clone membranes, 3H-Bradykinin. Conditions: 0.3 nM 3H-Bradykinin, i.a. = inactive, read-out: Human Binding - pIC50 B2 (converted). On the procedure: as §1
as §2, with “air-dried. Filtermats were counted in 9.5 mls Wallec Beta-Plate Scint, in Wallec 1450 MicroBeta Counter.” for “air-dried.”

Series [2] in a line: Stability in rat kidney brush border microvilli. It is filed as in vitro ADME. The procedure:
Kidney membranes were prepared as indicated in the literature (Booth et al., Biochemical Journal, 142: 575 (1974)). Rat kidneys were obtained after sacrifice and rinsed in several volumes of a 2 mM tris, 10 mM mannitol buffer, pH 7.1. Cortical material was carefully removed and homogenized in ten volumes of the buffer. The homogenate was spun in a IEC Centra-8 refrigerated centrifuge. (4° C., 200×g). The supernatant was made 10 mM with respect to MgCl2. The supernatant material was subjected to further centrifugation as indicated: [drawing 2] Pellet resuspended in tris-mannitol buffer. Protein concentration was determined by the method of Bradford (Anal. Biochem., 72:248-254 (1976)). Bradykinin antagonists were prepared at 1 mM concentration in a phosphate-buffered saline solution (phosphate saline, 2.6 mM KH2 PO4, 10.42 mM Na2 HPO4, 0.1454M NaCl, pH. 7.2). Aliquots (10 μl) of the compound were added to 90 μl of the tissue samples in Eppendorf tubes. Samples were incubated various time points at 37° C. At each time point protein was precipitated by addition of acetonitrile, acetonitrile made 0.1M HCl or 10% (v/v) trifluoroacetic acid in water (100 μl). Tubes were spun (14,000 rpm, 10 min) in an Eppendorf Model 5415C microcentrifuge. Samples were filtered and analyzed using reverse-phase HPLC (C18 column 4.6×150 mm) and a 13.5% to 90% acetonitrile gradient in 0.1% TFA. Compound half-life was determined by analysis of raw data using ENZFIT application software (Elsevier).

The target in series [3] is T3, B2 receptor (Cavia porcellus, UniProt O70526).
T3 construct: from tissue
T3 sequence (O70526 1-372): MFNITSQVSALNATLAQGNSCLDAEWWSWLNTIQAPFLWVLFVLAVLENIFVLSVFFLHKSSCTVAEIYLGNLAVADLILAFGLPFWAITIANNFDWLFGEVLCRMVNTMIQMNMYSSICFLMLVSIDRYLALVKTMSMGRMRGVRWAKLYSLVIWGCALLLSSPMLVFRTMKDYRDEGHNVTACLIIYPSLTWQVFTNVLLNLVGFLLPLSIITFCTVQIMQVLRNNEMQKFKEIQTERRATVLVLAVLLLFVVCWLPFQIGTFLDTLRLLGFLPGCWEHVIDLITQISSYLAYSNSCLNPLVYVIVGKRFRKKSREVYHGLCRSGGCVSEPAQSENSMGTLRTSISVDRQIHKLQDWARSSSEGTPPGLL
Description: GPI binding B2. The conditions noted are these: i.a. = inactive; for IC50: read-out: GPI Binding - pIC50 B2 (converted).

Series [4] in a line: Stability in rat lung membranes. It is filed as in vitro ADME. The procedure:
Rat or human lung (3 gm) was prepared as a modification of […] et al. (Biochemical Pharmacology 33: 3471 (1984)). Tissues were removed and placed in cold phosphate-saline (3×). Material was minced and homogenized in 20 volumes (w/v) of 0.5 mM tris HCl. 50 mM mannitol, pH 7.0. Calcium chloride was added to the homogenate to give a final concentration of 10 mM. The material was filtered through a guaze pad to remove loose connective tissue. Filtrate was spun in a Beckman centrifuge (3,000×g) for thirty minutes. The resultant supernatant fraction was spun in a Beckman L7-65 ultracentrifuge (43,000×g, 30 min) to spin down membranes. The centrifugation step was repeated on the membrane pellet fraction two additional times. The pellet was reconstituted in 4 ml of the tris mannitol buffer and stored at -70° C. Protein was determined by the method of Bradford. Bradykinin antagonists were prepared at 1 mM concentration in a phosphate-buffered saline solution (phosphate saline, 2.6 mM KH2 PO4, 10.42 mM Na2 HPO4, 0.1454M NaCl, pH. 7.2). Aliquots (10 μl) of the compound were added to 90 μl of the tissue samples in Eppendorf tubes. Samples were incubated various time points at 37° C. At each time point protein was precipitated by addition of acetonitrile, acetonitrile made 0.1M HCl or 10% (v/v) trifluoroacetic acid in water (100 μl). Tubes were spun (14,000 rpm, 10 min) in an Eppendorf Model 5415C microcentrifuge. Samples were filtered and analyzed using reverse-phase HPLC (C18 column 4.6×150 mm) and a 13.5% to 90% acetonitrile gradient in 0.1% TFA. Compound half-life was determined by analysis of raw data using ENZFIT application software (Elsevier).

Series [5] deals with T4, BK1 (hypotensive response to desArg9BK) (Canis lupus familiaris, UniProt Q9BDQ5).
T4 construct: Mongrel dogs of either sex, weight range 10-15 kg were used; from tissue; host or cells: whole anaesthetized mongrel dog (in vivo blood pressure)
T4 sequence (Q9BDQ5 1-350): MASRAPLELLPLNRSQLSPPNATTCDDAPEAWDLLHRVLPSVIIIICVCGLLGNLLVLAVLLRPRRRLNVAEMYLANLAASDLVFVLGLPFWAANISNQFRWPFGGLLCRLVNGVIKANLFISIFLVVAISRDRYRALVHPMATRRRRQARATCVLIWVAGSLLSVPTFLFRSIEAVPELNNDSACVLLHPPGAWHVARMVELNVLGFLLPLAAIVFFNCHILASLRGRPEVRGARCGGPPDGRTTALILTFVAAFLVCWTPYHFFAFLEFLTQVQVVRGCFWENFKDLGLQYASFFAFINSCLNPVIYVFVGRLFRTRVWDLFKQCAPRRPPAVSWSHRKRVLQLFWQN
Description: In vivo inhibition of hypotensive response to desArg9BK in anaesthetized dogs. The conditions noted are these: dog. Set-up: species or system Mongrel dogs. On the procedure: Mongrel dogs of either sex, weight range 10-15 kg were used. These were anaesthesized with pentobarbitone, 30 mg/kg i.v. and catheters placed in one femoral artery and both femoral veins for the recording of blood pressure and infusion and injection of compounds. […] After the end of the infusion of the highest dose of the antagonist compound, BK and des-Arg^9 -BK were injected at intervals for up to four hours.

Where [6] appears, read: infusion, dose of antagonist to inhibit hypotensive response to desArg9BK by 50%.

Square brackets hold non-standard residues; d marks the D form. Ends that are not written are not given here. Peptide text beside a SMILES is read from it. Oic = O=C(O)[C@@H]1C[C@@H]2CCCC[C@@H]2N1; dIgl = N[C@@H](C(=O)O)C1Cc2ccccc2C1; Gly(cPent) = N[C@H](C(=O)O)C1CCCC1; Igl = N[C@H](C(=O)O)C1Cc2ccccc2C1; Hyp = O=C(O)[C@@H]1C[C@@H](O)CN1; dTic = O=C(O)[C@H]1Cc2ccccc2CN1

As to `N=C(N)NCCC[C@@H](N)C(=O)N[C@@H](CCCNC(=N)N)C(=O)N1CCC[C@H]1C(=O)N1C[C@H](O)C[C@H]1C(=O)NCC(=O)N[C@H](C(=O)N[C@@H](CO)C(=O)N1Cc2ccccc2C[C@@H]1C(=O)N[C@H](C(=O)O)C1CCCC1)C1CCCC1` [B9066, DArg-Arg-Pro-Hyp-Gly-Cpg-Ser-DTic-Cpg] (H-[dR]RP[Hyp]G[Gly(cPent)]S[dTic][Gly(cPent)]-OH), the figures for the IC50 on B1 receptor, on B2 receptor [1] and at B2 receptor [3] were 0.501 nM, 1260 nM and 2510 nM, respectively. Further, the Half-Life in series [2] and in series [4] was greater than 6 h throughout.

Regarding `N=C(N)NCCC[C@@H](N)C(=O)N[C@@H](CCCNC(=N)N)C(=O)N1CCC[C@H]1C(=O)N1C[C@H](O)C[C@H]1C(=O)NCC(=O)N[C@H](C(=O)N[C@@H](CO)C(=O)N[C@@H](C(=O)N1[C@H](C(=O)O)C[C@@H]2CCCC[C@@H]21)C1Cc2ccccc2C1)C1Cc2ccccc2C1` [B9812, DArg-Arg-Pro-Hyp-Gly-Igl-Ser-DIgl-Oic] (H-[dR]RP[Hyp]G[Igl]S[dIgl][Oic]-OH), the “BK1 ED50” value in series [5] (ED50 expressed in pmol) is on record as 10.7 pmol. Further, the “Duration of Action (following 20 min of highest dose)” value in series [5] (return of agonist response after end of infusion) was “B1 still 100% blocked at 4.6 h”. Further, the “Selectivity (BK, desArg9BK, ACh, NE, Sp, AII)” value in series [5] (which agonist responses are blocked at the stated infusion dose) is “B1 only at 1.0”. Further, the Half-Life in series [2] and in series [4] was greater than 6 h in each case.

On to `N=C(N)NCCC[C@H](NC(=O)[C@@H](N)CCCCN)C(=O)N1CCC[C@H]1C(=O)N1C[C@H](O)C[C@H]1C(=O)NCC(=O)N[C@H](C(=O)N[C@@H](CO)C(=O)N1Cc2ccccc2C[C@@H]1C(=O)N[C@H](C(=O)O)C1CCCC1)C1Cc2ccccc2C1` [B9842, Lys-Arg-Pro-Hyp-Gly-Igl-Ser-DTic-Cpg] (H-KRP[Hyp]G[Igl]S[dTic][Gly(cPent)]-OH), for which the results for the IC50 on B1 receptor and at B2 receptor [1] were 0.251 nM and 631 nM, respectively. Besides, the “GPI Binding - pIC50 B2” value on B2 receptor [3] is listed as “i.a”.

Take `N=C(N)NCCC[C@H](NC(=O)[C@H](CCCCN)NC(=O)[C@@H](N)CCCCN)C(=O)N1CCC[C@H]1C(=O)N1C[C@H](O)C[C@H]1C(=O)NCC(=O)N[C@H](C(=O)N[C@@H](CO)C(=O)N[C@@H](C(=O)N1[C@H](C(=O)O)C[C@@H]2CCCC[C@@H]21)C1Cc2ccccc2C1)C1Cc2ccccc2C1` [B9858, Lys- Lys-Arg-Pro-Hyp-Gly-Igl-Ser-DIgl-Oic]: the values for the IC50 at B2 receptor [1] and at B2 receptor [3] were 20 nM and 126 nM, respectively. Further, the “BK1 ED50” value in series [5] (setting [6]) is 0.03 ± 0.01 µg/kg/min.

Turning to `CC(C)C[C@H](NC(=O)[C@@H]1CCCN1C(=O)[C@H](CO)NC(=O)[C@H](Cc1ccccc1)NC(=O)CNC(=O)[C@@H]1CCCN1C(=O)[C@@H]1CCCN1C(=O)[C@H](CCCN=C(N)N)NC(=O)[C@@H](N)CCCCN)C(=O)O` [CP-0298, desArg9 Lys0 Leu8 BX, reference compound], the “BK1 ED50” value in series [5] (setting [6]) is 0.546 ± .16 µg/kg/min. Further, the Half-Life was found to be 0.020 h in series [2] and 0.085 h in series [4].

For “RPPGFSPFR [Bradykinin, Arg^1 -Pro^2 -Pro^3 -Gly^4 -Phe^5 -Ser^6 -Pro^7 -Phe^8 -Arg^9, reference compound]”, the Half-Life in series [2] (Rat kidney Brush Border, 37° C.) worked out at 0.13 h; in series [4] (Rat Lung Membranes, 37° C.), 0.13 h.
